Reference: paper PMC3707847 (PLoS ONE, 2013)

Experiments:
[1] = target: T1, recombinant IAV polymerase complex (PA/PB1/PB2) (Influenza A virus, UniProt F6KI70); format: biochemical, H3N2 IAV strain (A/chicken/Nanchang/3-120/01); settings: for Primer extension products opposite C on template: template t14-1, 100 µM nucleotide plus 25 µM CTP and UTP; for Kapp, single NMP incorporation opposite cytidine (N:C): template t14-1, position +10; for Discrimination (Kapp,NTP/Kapp,GTP), opposite cytidine: template t14-1, relative to natural GTP; for Primer extension products opposite U on template: template t14-2, 100 µM nucleotide; for Discrimination (Kapp,NTP/Kapp,ATP), opposite uridine: template t14-2, relative to natural ATP; for Primer extension products with multiple incorporation sites (UCC at +10 to +12): template t14-3, 100 µM nucleotide
[2] = tested on: influenza virus RNP complex (RdRp activity); format: biochemical, Influenza virus (A/WSN/33 (H1N1))
[3] = target: T1, recombinant IAV polymerase complex (PA/PB1/PB2); format: biochemical, H3N2 IAV strain (A/chicken/Nanchang/3-120/01); settings: T-705 RTP at 100 µM; for Effect of increasing natural GTP to 300 µM on inhibition of polymerase activity: GTP 300 µM vs low, 3′dGTP data not shown

Compound | Primer extension products opposite C on template [1] | Kapp, single NMP incorporation opposite cytidine (N:C) [1] | Discrimination (Kapp,NTP/Kapp,GTP), opposite cytidine [1] | Primer extension products opposite U on template [1] | Kapp, single NMP incorporation opposite uridine (N:U) ([1]; template t14-2, position +10) [µM] | Discrimination (Kapp,NTP/Kapp,ATP), opposite uridine [1] [fold] | Primer extension products with multiple incorporation sites (UCC at +10 to +12) [1] | Inhibition of radiolabeled viral RNA synthesis by RNP complex [2] | Effect of increasing natural GTP to 300 µM on inhibition of polymerase activity [3] | also measured
Nc1nc2c(ncn2[C@@H]2O[C@H](COP(=O)(O)OP(=O)(O)OP(=O)(O)O)[C@@H](O)[C@H]2O)c(=O)[nH]1 [GTP] | converted to the 14-mer full length extension product | 0.0078 ± 0.003 µM | 1 fold | robust 14-mer RNA product | 9.2 ± 0.54 | 420 | – | – | – | Error rate of RNA synthesis by IAV polymerase, G:U mismatch ([1]; GTP opposite uridine, calculated from Kapp): 2.4×10^−3
Nc1ncnc2c1ncn2[C@@H]1O[C@H](COP(=O)(O)OP(=O)(O)OP(=O)(O)O)[C@@H](O)[C@H]1O [ATP] | mis-incorporation was slightly increased | 2,560±720 µM | 330,000 fold | converted to 14-mer full length product | 0.022 ± 0.003 | 1 | most of the 9-mer was converted to 10-mer | – | – | Error rate of RNA synthesis by IAV polymerase, A:C mismatch ([1]; ATP opposite cytidine, calculated from Kapp): 3.1×10^−6; Kapp for ATP opposite uridine as printed in text ([1]; template t14-2, position +10): 0.022 ± 0.003 µM⁻¹; Kapp for ATP incorporation, t14-3 template ([1]; template t14-3, 9-mer to +10 position): 0.038 µM
NC(=O)c1nc(F)cn([C@@H]2O[C@H](COP(=O)(O)OP(=O)(O)OP(=O)(O)O)[C@@H](O)[C@H]2O)c1=O [T-705 RTP, T-705 ribofuranosyl 5′-triphosphate] | conversion of the 9-mer to 14-mer, with an additional 10-mer product | – | – | conversion of the 9-mer to 10- and 14-mer products | – | – | complete inhibition of further nucleotide incorporation | inhibited the RdRp activity of influenza virus vRNPs | almost completely prevented the inhibition of polymerase activity | Potency relative to 3′dGTP against RNP complex [2]: significantly more potent than 3′dGTP; Effect of increasing natural ATP to 300 µM on inhibition ([3]; ATP 300 µM vs 3 µM): same loss of inhibition effect; Effect of CTP and UTP at varying concentrations on inhibition potency ([3]; CTP or UTP 3 or 300 µM): did not change the inhibition potency
Nc1nc2c(ncn2[C@@H]2O[C@H](COP(=O)(O)OP(=O)(O)OP(=O)(O)O)C[C@H]2O)c(=O)[nH]1 [3′dGTP, 3′-deoxy GTP] | produced only a 10-mer chain termination product | – | – | – | – | – | – | progressive inhibition of radio-labeled RNA synthesis | almost completely prevented the inhibition of polymerase activity | –
Nc1ncnc2c1ncn2[C@@H]1O[C@H](COP(=O)(O)OP(=O)(O)OP(=O)(O)O)C[C@H]1O [3′dATP] | – | – | – | – | – | – | – | – | – | Incorporation by IAVpol in single nucleotide incorporation assay ([1]; data not shown): not significantly incorporated by IAVpol
